Measurements published in patent US5196547A, “Meso-azacyclic amides of imidazopyridine carboxylic acids and analogs thereof” (G. D. Searle & Co., priority 1992, dated 1993).

Target: T1, 5-HT3 receptor (Rattus norvegicus, UniProt P35563)
T1 construct: Brain cortices are obtained from male rats and a membrane fraction prepared by standard techniques; from tissue; host or cells: male rat brain cortex, membrane fraction
T1 sequence (P35563 24-483): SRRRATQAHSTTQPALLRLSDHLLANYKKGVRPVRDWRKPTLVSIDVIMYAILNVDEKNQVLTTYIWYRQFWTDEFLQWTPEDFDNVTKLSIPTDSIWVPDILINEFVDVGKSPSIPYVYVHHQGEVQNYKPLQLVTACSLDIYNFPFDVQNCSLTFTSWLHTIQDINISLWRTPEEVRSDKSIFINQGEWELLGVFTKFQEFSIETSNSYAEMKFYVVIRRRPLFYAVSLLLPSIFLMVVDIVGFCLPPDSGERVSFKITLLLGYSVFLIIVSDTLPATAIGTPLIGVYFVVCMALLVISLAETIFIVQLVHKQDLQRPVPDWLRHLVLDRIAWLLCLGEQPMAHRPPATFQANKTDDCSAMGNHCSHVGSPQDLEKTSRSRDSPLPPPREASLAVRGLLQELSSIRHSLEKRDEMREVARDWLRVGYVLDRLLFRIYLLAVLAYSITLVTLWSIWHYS
Experiment: Serotonin (5-HT3) radioligand receptor binding assay, [3H]-GR65630
Protocol: 5-HT3 antagonism can be determined by the radioligand receptor binding assay as described herein and in the in vivo Bezold-Jarisch reflex procedure.
GR65630 binds to the 5-HT3 receptor. Brain cortices are obtained from male rats and a membrane fraction prepared by standard techniques. 0.04 mg of membrane prep is incubated with 0.2 nM [^3 H]-GR656630 for 60 minutes at 22° C. […] Membranes are filtered and washed 3 times and the filters are counted to determine [3H]-GR65630 specifically bound.*
*Literature References: Kilpatrick GJ, Jones BJ and Tyers MG. Identification and distribution of 5-HT3 receptors in rat brain using radioligand binding. Nature, 330 : 746-748, 1987.

SMILES | Kd [nM] | % Specific Binding ([3H]-GR65630, non-specific binding in the presence of 1 uM ICS 205-930) [%] | IC50 [nM] | Ki [nM]
Cc1nc[nH]c1CCC(=O)c1cn(C)c2ccccc12 [GR65630] | 2.46 | 70 |  | 
c1ccc2nc(N3CCNCC3)ccc2c1 [Quipazine] |  |  | 0.5 | 0.18
COc1ccc2[nH]cc(C3=CCNCC3)c2c1 [RU24969] |  |  | 320 | 1850
COc1cc(N)c(Cl)cc1C(=O)NC1CN2CCC1CC2 (centres unmarked) [Zacopride] |  |  | 0.55 | 0.18
